Measured values reported in paper PMC11845477, “Exploring the principles behind antibiotics with limited resistance” (Nature Communications, 2025).
Where two headings read alike, the source gives them in different places.

Legend:
[1] = tested on: K. pneumoniae ATCC 10031 (SEN) and K. pneumoniae ATCC 700603 (MDR); experiment: Frequency-of-resistance (FoR) assay, relative MIC of mutants; format: cell-based, Klebsiella pneumoniae; details: for MIC: Klebsiella pneumoniae
In short: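 Relative MIC is mutant MIC divided by ancestor MIC. Mutants: ten colonies from the highest-concentration plate after ~10^10 MHB-grown cells spent 48 h at 37 °C on antibiotic agar (triplicates, susceptible-range concentrations).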

[2] = tested on: A. baumannii ATCC 17978 (SEN) and A. baumannii ATCC BAA-1605 (MDR); experiment: as above; format: cell-based, Acinetobacter baumannii; details: for MIC: Acinetobacter baumannii
Method: The susceptibility of antibiotics to resistance development was evaluated in two strains of each bacterial species: a multidrug-resistant strain and an antibiotic-sensitive strain of Escherichia coli, Klebsiella pneumoniae, Acinetobacter baumannii, and Pseudomonas aeruginosa. To explore first-step resistance, we previously used a standard protocol for spontaneous frequency-of-resistance analysis (FoR assay) at multiple concentrations of each antibiotic[10],[28],[31]–[33]. […] For all other combinations, approximately 10^10 bacterial cells were exposed to one of each antibiotic on agar plates for two days at concentrations where the given strain is susceptible. We examined resistance levels by contrasting the minimum inhibitory concentration (MICs) of the mutated strains to the original wild-type bacterial strain (i.e., relative MIC).
To estimate the frequency of spontaneous mutations that confer resistance in a microbial population, we conducted a frequency of resistance (FoR) assay following established protocols[10],[31]–[33]. […] Prior to plating, bacteria were grown overnight in MHB medium at 37 °C and 250 RPM, then centrifuged and washed in MHB. All experiments were performed in triplicate, and plates were incubated at 37 °C for 48 hours. Total colony-forming units (CFUs) were determined by plating appropriate dilutions onto antibiotic-free MHB agar. Resistance frequencies were calculated by dividing the number of resistant colonies by the initial viable cell count. From the plates with the highest antibiotic concentration, ten colonies were selected for MIC determination and whole-genome sequencing.
A robotic liquid handling system was used to automatically prepare a 11 to 16-step serial dilution in 384-well microtiter plates (Greiner). A final concentration of 5 × 10^5 bacterial cells per mL were inoculated into each well containing 60 µL MHB medium. Bacterial cultures were incubated at 37 °C with continuous shaking (Infors shaker, 900 rpm with 3 mm throw) for 18 hours (2 replicates from each). Cell growth was monitored by measuring the optical density (OD600 values, using Biotek Synergy microplate reader). MIC was defined as the antibiotic concentration of complete growth inhibition (i.e., OD600 < 0.05). Relative MIC was calculated as follows:1 relativeMIC=MICevolved/MICancestor […]
Supplementary Figure 3. Resistance levels following the frequency of resistance assay across bacterial strains. The level of resistance was measured as the fold change in relative MIC between evolved and ancestral strains. Data are grouped by bacterial strain (A. baumannii (AB), E. coli (EC), K. pneumoniae (KP), and P. aeruginosa (PA)) and categorized as either multidrug-resistant (MDR) or sensitive (SEN). Each data point represents a laboratory evolved line, and boxplots show the median, first and third quartiles, with whiskers indicating the 5th and 95th percentiles. […]
analysis was performed using two-sided Dunn’s post-hoc test with Benjamini-Hochberg correction for multiple comparisons (**/ * indicates p < 0.01/ 0.05). For detailed information on antibiotic and bacterial species, see Supplementary Table 1. For mode of action groups, refer to Table 1. Source data are provided as a Source Data file.

[3] = tested on: E. coli ATCC 25922 (SEN) and E. coli NCTC13846 (MDR); experiment: Adaptive laboratory evolution (ALE), relative MIC of evolved lines; format: cell-based, Escherichia coli
In short: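 Ten parallel populations per antibiotic–ancestor pair were evolved in MHB at 37 °C, starting near 50% growth-inhibiting drug. Every 72 h they were passaged into 0.5–2.5× increasing concentrations, keeping the highest-drug well with OD600 > 0.2.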

Compound: CN(C)[C@@H]1C(O)=C(C(N)=O)C(=O)[C@@]2(O)C(O)=C3C(=O)c4c(O)c(NC(=O)CN5CCCC5)cc(F)c4C[C@H]3C[C@@H]12 [Eravacycline]
- Relative MIC ([1]; Klebsiella pneumoniae ATCC 10031 (KP-SEN), evolved line 1 versus ancestor): 16
- Relative MIC ([1]; Klebsiella pneumoniae ATCC 10031 (KP-SEN), evolved line 2 versus ancestor): 16
- Relative MIC ([1]; Klebsiella pneumoniae ATCC 10031 (KP-SEN), evolved line 3 versus ancestor): 16
- Relative MIC ([1]; Klebsiella pneumoniae ATCC 700603 (KP-MDR), evolved line 1 versus ancestor): 8
- Relative MIC ([1]; Klebsiella pneumoniae ATCC 700603 (KP-MDR), evolved line 2 versus ancestor): 8
- Relative MIC ([1]; Klebsiella pneumoniae ATCC 700603 (KP-MDR), evolved line 3 versus ancestor): 8
- MIC ([1]; read-out: MIC of evolved line, Klebsiella pneumoniae ATCC 10031 (KP-SEN), evolved line 1): 0.5 µg/mL
- MIC ([1]; read-out: MIC of evolved line, Klebsiella pneumoniae ATCC 10031 (KP-SEN), evolved line 2): 0.5 µg/mL
- MIC ([1]; read-out: MIC of evolved line, Klebsiella pneumoniae ATCC 10031 (KP-SEN), evolved line 3): 0.5 µg/mL
- MIC ([1]; read-out: MIC of evolved line, Klebsiella pneumoniae ATCC 700603 (KP-MDR), evolved line 1): 32 µg/mL
- MIC ([1]; read-out: MIC of evolved line, Klebsiella pneumoniae ATCC 700603 (KP-MDR), evolved line 2): 32 µg/mL
- MIC ([1]; read-out: MIC of evolved line, Klebsiella pneumoniae ATCC 700603 (KP-MDR), evolved line 3): 32 µg/mL
- Relative MIC ([2]; Acinetobacter baumannii ATCC 17978 (AB-SEN), evolved line 1 versus ancestor): 8
- Relative MIC ([2]; Acinetobacter baumannii ATCC 17978 (AB-SEN), evolved line 2 versus ancestor): 16
- Relative MIC ([2]; Acinetobacter baumannii ATCC 17978 (AB-SEN), evolved line 3 versus ancestor): 8
- Relative MIC ([2]; Acinetobacter baumannii ATCC BAA 1605 (AB-MDR), evolved line 1 versus ancestor): 4
- Relative MIC ([2]; Acinetobacter baumannii ATCC BAA 1605 (AB-MDR), evolved line 2 versus ancestor): 4
- Relative MIC ([2]; Acinetobacter baumannii ATCC BAA 1605 (AB-MDR), evolved line 3 versus ancestor): 8
- MIC ([2]; read-out: MIC of evolved line, Acinetobacter baumannii ATCC 17978 (AB-SEN), evolved line 1): 0.5 µg/mL
- MIC ([2]; read-out: MIC of evolved line, Acinetobacter baumannii ATCC 17978 (AB-SEN), evolved line 2): 1 µg/mL
- MIC ([2]; read-out: MIC of evolved line, Acinetobacter baumannii ATCC 17978 (AB-SEN), evolved line 3): 0.5 µg/mL
- MIC ([2]; read-out: MIC of evolved line, Acinetobacter baumannii ATCC BAA 1605 (AB-MDR), evolved line 1): 8 µg/mL
- MIC ([2]; read-out: MIC of evolved line, Acinetobacter baumannii ATCC BAA 1605 (AB-MDR), evolved line 2): 8 µg/mL
- MIC ([2]; read-out: MIC of evolved line, Acinetobacter baumannii ATCC BAA 1605 (AB-MDR), evolved line 3): 16 µg/mL
- Relative MIC (log10) ([3]; EC-MDR (Escherichia coli NCTC 13846), evolved line 1 adapted to the named antibiotic): 1.505
- Relative MIC (log10) ([3]; EC-MDR (Escherichia coli NCTC 13846), evolved line 3 adapted to the named antibiotic): 1.204
- Relative MIC (log10) ([3]; EC-MDR (Escherichia coli NCTC 13846), evolved line 4 adapted to the named antibiotic): 1.204
- Relative MIC (log10) ([3]; EC-MDR (Escherichia coli NCTC 13846), evolved line 7 adapted to the named antibiotic): 1.204
- Relative MIC (log10) ([3]; EC-MDR (Escherichia coli NCTC 13846), evolved line 9 adapted to the named antibiotic): 1.505
- Relative MIC ([3]; EC-MDR (NCTC 13846), evolved line 1, MIC of evolved line / MIC of ancestor): 32
- Relative MIC ([3]; EC-MDR (NCTC 13846), evolved line 2, MIC of evolved line / MIC of ancestor): 16
- Relative MIC ([3]; EC-MDR (NCTC 13846), evolved line 3, MIC of evolved line / MIC of ancestor): 16
- Relative MIC ([3]; EC-MDR (NCTC 13846), evolved line 4, MIC of evolved line / MIC of ancestor): 16
- Relative MIC ([3]; EC-MDR (NCTC 13846), evolved line 5, MIC of evolved line / MIC of ancestor): 8
- Relative MIC ([3]; EC-MDR (NCTC 13846), evolved line 7, MIC of evolved line / MIC of ancestor): 16
- Relative MIC ([3]; EC-MDR (NCTC 13846), evolved line 8, MIC of evolved line / MIC of ancestor): 16
- Relative MIC ([3]; EC-MDR (NCTC 13846), evolved line 9, MIC of evolved line / MIC of ancestor): 32
- Relative MIC ([3]; EC-MDR (NCTC 13846), evolved line 10, MIC of evolved line / MIC of ancestor): 8
- Relative MIC ([3]; EC-SEN (ATCC 25922), evolved line 1, MIC of evolved line / MIC of ancestor): 64
- Relative MIC ([3]; EC-SEN (ATCC 25922), evolved line 2, MIC of evolved line / MIC of ancestor): 16
- Relative MIC (log10) ([3]; EC-SEN (Escherichia coli ATCC 25922), evolved line 1 adapted to the named antibiotic): 1.806
- Relative MIC (log10) ([3]; EC-SEN (Escherichia coli ATCC 25922), evolved line 4 adapted to the named antibiotic): 1.204
- Relative MIC (log10) ([3]; EC-SEN (Escherichia coli ATCC 25922), evolved line 7 adapted to the named antibiotic): 1.204
- Relative MIC (log10) ([3]; EC-SEN (Escherichia coli ATCC 25922), evolved line 8 adapted to the named antibiotic): 1.204
- Relative MIC ([3]; EC-SEN, Escherichia coli ATCC 25922, evolved line 3 versus ancestor): 8
- Relative MIC ([3]; EC-SEN, Escherichia coli ATCC 25922, evolved line 4 versus ancestor): 16
- Relative MIC ([3]; EC-SEN, Escherichia coli ATCC 25922, evolved line 6 versus ancestor): 8
- Relative MIC ([3]; EC-SEN, Escherichia coli ATCC 25922, evolved line 7 versus ancestor): 16
- Relative MIC ([3]; EC-SEN, Escherichia coli ATCC 25922, evolved line 8 versus ancestor): 16
- Relative MIC ([3]; EC-SEN, Escherichia coli ATCC 25922, evolved line 9 versus ancestor): 16
- Relative MIC ([3]; EC-SEN, Escherichia coli ATCC 25922, evolved line 10 versus ancestor): 32
- Relative MIC ([3]; Escherichia coli ATCC 25922 (EC-SEN), evolved line 1): 64
- Relative MIC ([3]; Escherichia coli ATCC 25922 (EC-SEN), evolved line 2): 16
- Relative MIC ([3]; Escherichia coli ATCC 25922 (EC-SEN), evolved line 3): 8
- Relative MIC ([3]; Escherichia coli ATCC 25922 (EC-SEN), evolved line 4): 16
- Relative MIC ([3]; Escherichia coli ATCC 25922 (EC-SEN), evolved line 6): 8
- Relative MIC ([3]; Escherichia coli ATCC 25922 (EC-SEN), evolved line 7): 16
- Relative MIC ([3]; Escherichia coli ATCC 25922 (EC-SEN), evolved line 8): 16
- Relative MIC ([3]; Escherichia coli ATCC 25922 (EC-SEN), evolved line 9): 16
- Relative MIC ([3]; Escherichia coli ATCC 25922 (EC-SEN), evolved line 10): 32
- Relative MIC ([3]; Escherichia coli NCTC 13846 (EC-MDR), evolved line 1): 32
- Relative MIC ([3]; Escherichia coli NCTC 13846 (EC-MDR), evolved line 2): 16
- Relative MIC ([3]; Escherichia coli NCTC 13846 (EC-MDR), evolved line 3): 16
- Relative MIC ([3]; Escherichia coli NCTC 13846 (EC-MDR), evolved line 4): 16
- Relative MIC ([3]; Escherichia coli NCTC 13846 (EC-MDR), evolved line 5): 8
- Relative MIC ([3]; Escherichia coli NCTC 13846 (EC-MDR), evolved line 7): 16
- Relative MIC ([3]; Escherichia coli NCTC 13846 (EC-MDR), evolved line 8): 16
- Relative MIC ([3]; Escherichia coli NCTC 13846 (EC-MDR), evolved line 9): 32
- Relative MIC ([3]; Escherichia coli NCTC 13846 (EC-MDR), evolved line 10): 8
